Laboratory results: ChEMBL document CHEMBL1132162, “Microanalysis of a selective potent anti-Helicobacter pylori compound in a Brazilian medicinal plant, Myroxylon peruiferum and the activity of analogues” (1999)
In brackets after ≈: the same amount, converted by molar mass. Activity calls are given as the source filed them. The calls are words filed in the database; no cut-off is given here.

Columns and labels:
Helicobacter pylori = experiment: Anti-bacterial activity against Helicobacter pylori; format: functional
Bacillus subtilis = experiment: Anti-microbial activity against gram-positive bacteria Bacillus subtilis at 625 ug/mL concentration; Inactive; format: functional, organism-based
Bacteroides fragilis = experiment: Anti-microbial activity against gram-positive bacteria Bacteroides fragilis at 625 ug/mL concentration; Inactive; format: functional, organism-based
Candida albicans = experiment: Anti-microbial activity against yeast candida albicans at 625 ug/mL concentration; Inactive; format: functional, organism-based
Escherichia coli = experiment: Anti-microbial activity against gram-negative bacteria Escherichia coli at 625 ug/mL concentration; Inactive; format: functional, organism-based
Micrococcus luteus = experiment: Anti-microbial activity against gram-positive bacteria Micrococcus lutea at 625 ug/mL concentration; Inactive; format: functional, organism-based
Pseudomonas aeruginosa = experiment: Anti-microbial activity against gram-negative bacteria Pseudomonas aeruginosa at 625 ug/mL concentration; Inactive; format: functional, organism-based
Saccharomyces cerevisiae = experiment: Anti-microbial activity against yeast Saccharomyces cerevisiae at 625 ug/mL concentration; Inactive; format: functional, organism-based

SMILES | MIC (Helicobacter pylori) [µg/mL] | also measured
COc1ccc(-c2coc3cc(OC)cc(OC)c3c2=O)cc1 [BIOCHANIN A, DIMETHYL ETHER] | > 20 | 
COc1ccc2c(=O)c(-c3ccc(OC)c(OC)c3)coc2c1 | 7.8 (≈ 25 µM) | Activity (Bacillus subtilis): inactive; Activity (Bacteroides fragilis): inactive; Activity (Candida albicans): inactive; Activity (Escherichia coli): inactive; Activity (Micrococcus luteus): inactive; Activity (Pseudomonas aeruginosa): inactive; Activity (Saccharomyces cerevisiae): inactive
COc1ccc(CC(=O)c2ccc(OC)cc2)cc1 | > 20 | 
COc1ccc2c(=O)cc(-c3ccc(OC)c(OC)c3)oc2c1 [7,3',4'-Trimethoxyflavone] | > 20 | 
CCOc1ccc2c(=O)c(-c3ccc(OCC)c(OCC)c3)coc2c1 | 18 (≈ 50.8 µM) | 
COc1ccc2c(c1)OC=C(c1ccc(OC)c(OC)c1)[C@H]2O | 16 (≈ 50.9 µM) | 
COc1ccc2c(c1)OC=C(c1ccc(OC)c(OC)c1)[C@@H]2O | 16 (≈ 50.9 µM) | 
COc1ccc(-c2coc3cc(OC)ccc3c2=O)cc1 | > 20 | 
COc1ccc2c(c1)OCC(c1ccc(OC)c(OC)c1)C2=O (stereo not given) | > 20 | 
O=c1c(-c2ccc(O)c(O)c2)coc2cc(O)ccc12 | > 20 | 
O=c1ccoc2ccccc12 [CHROMONE] | > 20 | 
COc1ccc(C)cc1OC | > 20 | 
COc1ccc(-c2coc3cc(OC)c(OC)cc3c2=O)cc1 | > 20 | 
